ChEMBL document CHEMBL1201862, “PubChem BioAssay data set” (2004)
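Cultured in 96-well plates, cells were exposed to test compound for 48 hours across five concentrations. At the GI50, growth is halved.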 Activity calls are given as the source filed them. Cut-off read from the data, not from the text of the source: active = GI50 up to about 1.1 µM and inactive = higher.

Assays:
Assay in all cases: NCI-60 cell line screen, 48 h
TK-10 = tested on: TK-10
DLD-1 = tested on: DLD-1
UO-31 = tested on: UO-31
M14 = tested on: M14
DMS-114 = tested on: DMS-114
LXFL 529 = tested on: LXFL 529
SK-MEL-2 = tested on: SK-MEL-2
HCT-116 = tested on: HCT-116
M19-MEL = tested on: M19-MEL
EKVX = tested on: EKVX
SK-MEL-28 = tested on: SK-MEL-28
786-0 = tested on: 786-0
CAKI-1 = tested on: CAKI-1
OVCAR-4 = tested on: OVCAR-4
OVCAR-8 = tested on: OVCAR-8
KM-20L2 = tested on: KM-20L2
UACC-257 = tested on: UACC-257
XF498 = tested on: XF498
A549 = tested on: A549
SF-295 = tested on: SF-295
NCI-H23 = tested on: NCI-H23
HCT-15 = tested on: HCT-15
SK-MEL-5 = tested on: SK-MEL-5
HL-60 = tested on: HL-60
SK-OV-3 = tested on: SK-OV-3
SNB-78 = tested on: SNB-78
SF-539 = tested on: SF-539
UACC-62 = tested on: UACC-62
A498 = tested on: A498
KM12 = tested on: KM12
SW-620 = tested on: SW-620
OVCAR-5 = tested on: OVCAR-5
DMS-273 = tested on: DMS-273
RPMI-8226 = tested on: RPMI-8226
SN12C = tested on: SN12C
ACHN = tested on: ACHN
LOX IMVI = tested on: LOX IMVI
SNB-75 = tested on: SNB-75
SR = tested on: SR
MOLT-4 = tested on: MOLT-4
NCI-H460 = tested on: NCI-H460
SF-268 = tested on: SF-268
HT-29 = tested on: HT-29
RXF 631 = tested on: RXF 631
HOP-62 = tested on: HOP-62
K562 = tested on: K562
HOP-18 = tested on: HOP-18
Malme-3M = tested on: Malme-3M
U-251 = tested on: U-251
SNB-19 = tested on: SNB-19
RXF 393 = tested on: RXF 393
HCC 2998 = tested on: HCC 2998
IGROV-1 = tested on: IGROV-1
CCRF-CEM = tested on: CCRF-CEM
HOP-92 = tested on: HOP-92
NCI-H226 = tested on: NCI-H226
COLO 205 = tested on: COLO 205
OVCAR-3 = tested on: OVCAR-3
NCI-H522 = tested on: NCI-H522

With CC(C)(C)c1cc(Cc2ccc([N+](C)(C)C)cc2)c(O)c(C(C)(C)C)c1 as the compound, how does the GI50 (TK-10) read?
The GI50 was 24.6 µM (inactive).

And the GI50 (DLD-1)?
Its GI50 is 45.4 µM (inactive).

And the GI50 (UO-31)?
Its GI50 is 95.3 µM (inactive).

And the GI50 (M14)?
Its GI50 is 18.2 µM (inactive).

And the GI50 (DMS-114)?
The GI50 was 7.19 µM (inactive).

What about the GI50 (LXFL 529) of the same compound?
The GI50 was 13.8 µM (inactive).

And the GI50 (SK-MEL-2)?
Its GI50 is 16.5 µM (inactive).

And the GI50 (HCT-116)?
The GI50 was 16.7 µM (inactive).

What about the GI50 (M19-MEL) of the same compound?
The GI50 was 12.9 µM (inactive).

And the GI50 (EKVX)?
Its GI50 is 30.2 µM (inactive).

And the GI50 (SK-MEL-28)?
Its GI50 is 12.5 µM (inactive).

And the GI50 (786-0)?
Its GI50 is 24.2 µM (inactive).

What about the GI50 (CAKI-1) of the same compound?
The GI50 was 63.8 µM (inactive).

And the GI50 (OVCAR-4)?
The GI50 was 30.1 µM (inactive).

And the GI50 (OVCAR-8)?
Its GI50 is 17.4 µM (inactive).

And the GI50 (KM-20L2)?
The GI50 was 21.9 µM (inactive).

And the GI50 (UACC-257)?
The GI50 was 17 µM (inactive).

And the GI50 (XF498)?
Its GI50 is 13 µM (inactive).

And the GI50 (A549)?
Its GI50 is 33.9 µM (inactive).

And the GI50 (SF-295)?
Its GI50 is 26.3 µM (inactive).

And the GI50 (NCI-H23)?
Its GI50 is 17.7 µM (inactive).

What about the GI50 (HCT-15) of the same compound?
Its GI50 is > 100 µM.

And the GI50 (SK-MEL-5)?
Its GI50 is 10.6 µM (inactive).

What about the GI50 (HL-60) of the same compound?
The GI50 was 2.41 µM (inactive).

What about the GI50 (SK-OV-3) of the same compound?
Its GI50 is 25.2 µM (inactive).

What about the GI50 (SNB-78) of the same compound?
The GI50 was 14.9 µM (inactive).

What about the GI50 (SF-539) of the same compound?
The GI50 was 16.5 µM (inactive).

And the GI50 (UACC-62)?
Its GI50 is 14.3 µM (inactive).

And the GI50 (A498)?
Its GI50 is 53 µM (inactive).

What about the GI50 (KM12) of the same compound?
Its GI50 is 15.7 µM (inactive).

What about the GI50 (SW-620) of the same compound?
The GI50 was 23.2 µM (inactive).

And the GI50 (OVCAR-5)?
The GI50 was 22.2 µM (inactive).

And the GI50 (DMS-273)?
The GI50 was 9.64 µM (inactive).

And the GI50 (RPMI-8226)?
The GI50 was 14.8 µM (inactive).

What about the GI50 (SN12C) of the same compound?
The GI50 was 14.9 µM (inactive).

What about the GI50 (ACHN) of the same compound?
The GI50 was > 100 µM (inactive).

What about the GI50 (LOX IMVI) of the same compound?
Its GI50 is 16.4 µM (inactive).

What about the GI50 (SNB-75) of the same compound?
The GI50 was 9.2 µM (inactive).

And the GI50 (SR)?
The GI50 was 14.1 µM (inactive).

And the GI50 (MOLT-4)?
Its GI50 is 11.8 µM (inactive).

And the GI50 (NCI-H460)?
Its GI50 is 18.6 µM (inactive).

And the GI50 (SF-268)?
The GI50 was 15 µM (inactive).

What about the GI50 (HT-29) of the same compound?
Its GI50 is 15.4 µM (inactive).

And the GI50 (RXF 631)?
Its GI50 is 45.6 µM (inactive).

What about the GI50 (HOP-62) of the same compound?
Its GI50 is 16.6 µM (inactive).

What about the GI50 (K562) of the same compound?
The GI50 was 9.59 µM (inactive).

What about the GI50 (HOP-18) of the same compound?
The GI50 was 20.1 µM (inactive).

What about the GI50 (Malme-3M) of the same compound?
Its GI50 is 17.9 µM (inactive).

What about the GI50 (U-251) of the same compound?
Its GI50 is 12.7 µM (inactive).

What about the GI50 (SNB-19) of the same compound?
Its GI50 is 12.9 µM (inactive).

And the GI50 (RXF 393)?
Its GI50 is 16.4 µM (inactive).

And the GI50 (HCC 2998)?
Its GI50 is 15.7 µM (inactive).

What about the GI50 (IGROV-1) of the same compound?
The GI50 was 14.2 µM (inactive).

And the GI50 (CCRF-CEM)?
Its GI50 is 12.5 µM (inactive).

For CCCOC(=O)C1C(c2ccc(OC)cc2)NC(c2ccc(OC)cc2)C(C(=O)OCCC)S1(=O)=O (configuration not stated), which GI50 (TK-10) is on record?
The GI50 was > 10 µM (inactive).

What about the GI50 (DLD-1) of the same compound?
Its GI50 is > 10 µM (inactive).

And the GI50 (UO-31)?
The GI50 was > 10 µM (inactive).

What about the GI50 (M14) of the same compound?
The GI50 was > 10 µM (inactive).

And the GI50 (DMS-114)?
The GI50 was > 10 µM (inactive).

What about the GI50 (LXFL 529) of the same compound?
The GI50 was > 10 µM (inactive).

What about the GI50 (SK-MEL-2) of the same compound?
The GI50 was > 10 µM (inactive).

And the GI50 (HOP-92)?
Its GI50 is > 10 µM (inactive).

What about the GI50 (HCT-116) of the same compound?
Its GI50 is > 10 µM (inactive).

What about the GI50 (EKVX) of the same compound?
Its GI50 is > 10 µM (inactive).

And the GI50 (SK-MEL-28)?
The GI50 was > 10 µM (inactive).

What about the GI50 (786-0) of the same compound?
Its GI50 is > 10 µM (inactive).

What about the GI50 (NCI-H226) of the same compound?
The GI50 was > 10 µM (inactive).

And the GI50 (COLO 205)?
The GI50 was > 10 µM (inactive).

And the GI50 (CAKI-1)?
The GI50 was > 10 µM (inactive).

And the GI50 (OVCAR-4)?
Its GI50 is > 10 µM (inactive).

And the GI50 (OVCAR-8)?
The GI50 was > 10 µM (inactive).

And the GI50 (OVCAR-3)?
Its GI50 is > 10 µM (inactive).

What about the GI50 (KM-20L2) of the same compound?
Its GI50 is > 10 µM (inactive).

What about the GI50 (UACC-257) of the same compound?
Its GI50 is > 10 µM (inactive).

What about the GI50 (XF498) of the same compound?
Its GI50 is 9.18 µM (inactive).

And the GI50 (A549)?
The GI50 was > 10 µM (inactive).

What about the GI50 (SF-295) of the same compound?
Its GI50 is > 10 µM (inactive).

What about the GI50 (NCI-H23) of the same compound?
Its GI50 is > 10 µM (inactive).

What about the GI50 (HCT-15) of the same compound?
The GI50 was > 10 µM.

And the GI50 (SK-MEL-5)?
Its GI50 is > 10 µM (inactive).

What about the GI50 (HL-60) of the same compound?
Its GI50 is > 100 µM (inactive).

What about the GI50 (SK-OV-3) of the same compound?
The GI50 was > 100 µM (inactive).

And the GI50 (SNB-78)?
The GI50 was > 10 µM (inactive).

What about the GI50 (SF-539) of the same compound?
Its GI50 is > 10 µM (inactive).

What about the GI50 (UACC-62) of the same compound?
Its GI50 is > 10 µM (inactive).

What about the GI50 (A498) of the same compound?
The GI50 was 85.3 µM (inactive).

And the GI50 (KM12)?
The GI50 was > 10 µM (inactive).

What about the GI50 (SW-620) of the same compound?
Its GI50 is > 10 µM (inactive).

What about the GI50 (OVCAR-5) of the same compound?
Its GI50 is > 10 µM (inactive).

And the GI50 (DMS-273)?
Its GI50 is > 10 µM (inactive).

And the GI50 (RPMI-8226)?
Its GI50 is > 10 µM (inactive).

And the GI50 (NCI-H522)?
Its GI50 is > 10 µM (inactive).

And the GI50 (SN12C)?
Its GI50 is > 10 µM (inactive).

What about the GI50 (ACHN) of the same compound?
The GI50 was > 10 µM (inactive).

What about the GI50 (LOX IMVI) of the same compound?
Its GI50 is > 10 µM (inactive).

What about the GI50 (SNB-75) of the same compound?
The GI50 was > 10 µM (inactive).

And the GI50 (SR)?
The GI50 was > 100 µM (inactive).

And the GI50 (MOLT-4)?
The GI50 was > 10 µM (inactive).

What about the GI50 (NCI-H460) of the same compound?
Its GI50 is > 10 µM (inactive).

What about the GI50 (SF-268) of the same compound?
The GI50 was > 10 µM (inactive).

And the GI50 (HT-29)?
Its GI50 is > 10 µM (inactive).

What about the GI50 (RXF 631) of the same compound?
The GI50 was > 10 µM (inactive).

What about the GI50 (HOP-62) of the same compound?
The GI50 was > 10 µM (inactive).

What about the GI50 (K562) of the same compound?
The GI50 was > 10 µM (inactive).

What about the GI50 (HOP-18) of the same compound?
The GI50 was > 10 µM (inactive).

What about the GI50 (Malme-3M) of the same compound?
The GI50 was > 10 µM (inactive).

What about the GI50 (U-251) of the same compound?
The GI50 was > 10 µM (inactive).

What about the GI50 (SNB-19) of the same compound?
Its GI50 is > 10 µM (inactive).

What about the GI50 (RXF 393) of the same compound?
Its GI50 is > 10 µM (inactive).

And the GI50 (HCC 2998)?
Its GI50 is > 10 µM (inactive).

What about the GI50 (IGROV-1) of the same compound?
Its GI50 is > 10 µM (inactive).

And the GI50 (CCRF-CEM)?
The GI50 was > 10 µM (inactive).
